The values below are quoted from earlier work in patent US11224576B2, “Process for the production of an abuse-proofed dosage form” (GRÜNENTHAL GMBH, priority 2004, dated 2022).

`COc1cccc(C2(O)CCCCC2CN(C)C)c1` (stereo not shown) [Tramadol, tramadol]: the water solubility result is recorded as “excellent”.
